The values that follow come from US20110166223A1, “METHODS OF INHIBITING FGFR3 SIGNALING” (CEDARS-SINAI MEDICAL CENTER, priority 2008, published 2011).

Entries after “also recorded” stand apart in the source; their conditions may differ.

In assay [1] the test system is FGF2/FGFR3-mediated extracellular matrix loss in RCS chondrocytes. The assay can be described thus: [35S]sulfate labeling assay in RCS chondrocytes. The following applies: FGF2 5 ng/ml, NF449 20 μM, 72 hours, FIG. 2b. It is filed as cell-based, rat. On the procedure: For Alcian blue staining, growing RCS cultures were treated with FGF2 (5 ng/ml) alone or in the presence of NF449 (20 μM) for 72 hours, fixed with 4% paraformaldehyde and stained for 30 minutes with Alcian blue. For quantification of the FGF2/FGFR3-mediated extracellular matrix loss, RCS chondrocytes were treated with FGF2 (5 ng/ml) and NF449 (20 μM) for 72 hours in the presence of 10 μCi/ml of [^35S]sulfate (Perkin Elmer, Boston, Mass.). Following the cultivation period, cells were harvested and the incorporated radioactivity was determined by liquid scintillation.
Apart from the growth arrest, aberrant FGFR3 signaling in chondrocytes leads to the loss of their extracellular matrix, rich in sulfated proteoglycans, due to inhibition of matrix synthesis as well as degradation of the existing matrix. The inventors therefore evaluated whether NF449 rescues the extracellular matrix loss induced by FGFR3 activation. […] Similar to previous findings, this matrix was lost after the 72-hours of FGF2 treatment. […] To further confirm this observation, cells were incubated with [^35S]sulfate for 72 hours to label the extracellular matrix and determined the effect of FGF2 and NF449 on the cell-bound radioactivity.

The target of assay [2] is T1, full-length FLAG-tagged K650E-FGFR3 (Homo sapiens, UniProt P22607, K650E).
T1 construct: using full-length FLAG-tagged K650E-FGFR3 that was expressed in CHO cells; made in house; host or cells: CHO cells (transient transfection, anti-FLAG immunoprecipitation)
The assay can be described thus: Cell-free K650E-FGFR3 kinase assay with STAT1 as substrate. It is filed as biochemical. The following applies: immunopurified from CHO cells; FIG. 6. On the procedure:
FIG. 6, in accordance with an embodiment herein, depicts 4,4′,4″,4′″-[carbonyl-bis[imino-5,1,3-benzenetriyl bis-{carbonylimino}]]tetrakis-{benzene-1,3-disulfonic acid} inhibits K650E-FGFR3 in a kinase assay. Cell-free K650E-FGFR3 kinase assays were carried-out using full-length FLAG-tagged K650E-FGFR3 that was expressed in CHO cells, purified by immunoprecipitation with FLAG antibody and subjected to a kinase reaction with recombinant STAT1 as a substrate and 4,4′,4″,4′″-[carbonyl-bis[imino-5,1,3-benzenetriyl bis-{carbonylimino}]]tetrakis-{benzene-1,3-disulfonic acid} added to the kinase reaction. Cells transfected with plasmid encoding green fluorescent protein (GFP) serve as a negative control for the immunoprecipitation. […]
OPM2 and KMS11 cells were lysed in ice-cold immunoprecipitation buffer (50 mM Tris-HCl pH 7.4, 150 mM NaCl, 0.5% NP-40, 1 mM EDTA, 25 mM NaF) supplemented with proteinase inhibitors and 10 mM sodium orthovanadate. […] Western blotting signal was quantified by determining the integrated optical density (I.O.D.) of a given band using Scion Image software (Scion Corporation, Frederick, Mass.). […] FGFR3-mediated phosphorylation of STAT1 was detected by western blotting with P-STAT1^Y701 antibody (Cell Signaling). […]

Another assay addresses GSA subunit (Homo sapiens, UniProt P63092). The settings on record: Hohenegger, et al., 1998; cited from earlier work.

T1 sequence (P22607 23-806 K650E): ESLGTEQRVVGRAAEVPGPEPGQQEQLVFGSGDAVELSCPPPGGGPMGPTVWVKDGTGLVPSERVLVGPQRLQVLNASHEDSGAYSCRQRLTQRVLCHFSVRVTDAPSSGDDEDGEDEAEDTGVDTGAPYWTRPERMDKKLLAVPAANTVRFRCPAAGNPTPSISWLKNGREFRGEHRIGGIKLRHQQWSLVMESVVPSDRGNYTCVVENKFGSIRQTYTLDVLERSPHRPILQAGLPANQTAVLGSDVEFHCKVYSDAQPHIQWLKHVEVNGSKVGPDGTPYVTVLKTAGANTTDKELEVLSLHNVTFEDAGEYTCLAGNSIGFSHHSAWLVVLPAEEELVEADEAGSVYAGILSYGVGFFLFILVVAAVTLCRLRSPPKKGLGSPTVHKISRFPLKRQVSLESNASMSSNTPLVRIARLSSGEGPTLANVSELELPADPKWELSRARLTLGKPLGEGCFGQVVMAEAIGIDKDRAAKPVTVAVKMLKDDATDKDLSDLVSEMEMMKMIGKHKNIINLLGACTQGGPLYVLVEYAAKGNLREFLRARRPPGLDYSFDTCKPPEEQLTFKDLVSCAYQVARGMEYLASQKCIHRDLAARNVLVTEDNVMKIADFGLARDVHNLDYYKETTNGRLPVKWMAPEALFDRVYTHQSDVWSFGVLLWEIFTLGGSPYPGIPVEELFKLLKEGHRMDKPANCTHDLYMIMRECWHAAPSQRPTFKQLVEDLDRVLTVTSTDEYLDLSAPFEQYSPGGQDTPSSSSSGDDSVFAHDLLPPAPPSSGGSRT
Sequence of GSA subunit (P63092 whole entry): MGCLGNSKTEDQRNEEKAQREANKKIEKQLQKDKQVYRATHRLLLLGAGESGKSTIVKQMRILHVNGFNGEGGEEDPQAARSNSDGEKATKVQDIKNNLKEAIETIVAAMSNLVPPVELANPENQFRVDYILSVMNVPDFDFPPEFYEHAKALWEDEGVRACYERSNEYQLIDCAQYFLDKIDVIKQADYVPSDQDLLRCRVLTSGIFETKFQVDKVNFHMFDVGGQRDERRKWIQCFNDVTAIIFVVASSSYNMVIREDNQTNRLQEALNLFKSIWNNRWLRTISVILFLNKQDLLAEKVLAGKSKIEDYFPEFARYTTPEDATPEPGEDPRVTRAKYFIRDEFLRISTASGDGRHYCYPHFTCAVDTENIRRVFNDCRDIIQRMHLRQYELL

Regarding `O=C(Nc1cc(C(=O)Nc2ccc(S(=O)(=O)O)cc2S(=O)(=O)O)cc(C(=O)Nc2ccc(S(=O)(=O)O)cc2S(=O)(=O)O)c1)Nc1cc(C(=O)Nc2ccc(S(=O)(=O)O)cc2S(=O)(=O)O)cc(C(=O)Nc2ccc(S(=O)(=O)O)cc2S(=O)(=O)O)c1` [NF449, 4,4′,4″,4′″-[carbonyl-bis[imino-5,1,3-benzenetriylbis-{carbonylimino}]]tetrakis-{benzene-1,3-disulfonic acid}], the “FGF2-mediated inhibition of [35S]sulfate incorporation (loss of sulfated proteoglycans)” value was “completely rescued” in assay [1] and “reversed” in assay [1] (listed as 4,4′,4″,4′″-[carbonyl-bis[imino-5,1,3-benzenetriyl bis-{carbonylimino}]]tetrakis). In addition, in assay [2], the “effect on K650E-FGFR3 kinase activity (Y701 phosphorylation of STAT1)” value was “inhibitory effect; also recorded: inhibited K650E-FGFR3 kinase activity”. Moreover, the concentration needed to inhibit GSA at GSA subunit was 0.14 µM.
